Laboratory results taken from publication PMC3677530 (Analytical biochemistry, 2013).
Values joined by “and” are separate entries in the source; they are usually repeats but may differ in a detail not shown here. Equal values may be shown once. Read-outs that look alike come from different tables or passages of the source.

Legend:
[1] = target: human cannabinoid CB1 receptor (Homo sapiens, UniProt P21554); assay: cell-based; type: cell-based; conditions: for CB2/CB1: ratio of the IC50 values CB2/CB1, plate-based assay
[2] = target: human cannabinoid CB2 receptor (Homo sapiens, UniProt P34972); assay: cell-based; conditions: for inhibition of internalization (CB2): 2 nM [3H]-CP55,940, CHO-CB2
CB2 receptor = conditions: ref Tam et al [25]; cited from earlier work

human cannabinoid CB2 receptor, sequence (P34972 whole entry): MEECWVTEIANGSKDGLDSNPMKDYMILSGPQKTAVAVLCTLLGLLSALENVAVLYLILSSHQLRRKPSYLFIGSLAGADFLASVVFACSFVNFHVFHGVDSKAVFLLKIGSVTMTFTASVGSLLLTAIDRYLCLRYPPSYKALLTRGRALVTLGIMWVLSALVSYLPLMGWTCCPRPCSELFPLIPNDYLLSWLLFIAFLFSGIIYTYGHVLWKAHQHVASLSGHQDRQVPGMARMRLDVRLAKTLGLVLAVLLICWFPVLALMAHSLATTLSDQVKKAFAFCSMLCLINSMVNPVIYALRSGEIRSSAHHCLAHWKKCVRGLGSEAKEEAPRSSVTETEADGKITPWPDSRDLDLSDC
human cannabinoid CB1 receptor, sequence (P21554 whole entry): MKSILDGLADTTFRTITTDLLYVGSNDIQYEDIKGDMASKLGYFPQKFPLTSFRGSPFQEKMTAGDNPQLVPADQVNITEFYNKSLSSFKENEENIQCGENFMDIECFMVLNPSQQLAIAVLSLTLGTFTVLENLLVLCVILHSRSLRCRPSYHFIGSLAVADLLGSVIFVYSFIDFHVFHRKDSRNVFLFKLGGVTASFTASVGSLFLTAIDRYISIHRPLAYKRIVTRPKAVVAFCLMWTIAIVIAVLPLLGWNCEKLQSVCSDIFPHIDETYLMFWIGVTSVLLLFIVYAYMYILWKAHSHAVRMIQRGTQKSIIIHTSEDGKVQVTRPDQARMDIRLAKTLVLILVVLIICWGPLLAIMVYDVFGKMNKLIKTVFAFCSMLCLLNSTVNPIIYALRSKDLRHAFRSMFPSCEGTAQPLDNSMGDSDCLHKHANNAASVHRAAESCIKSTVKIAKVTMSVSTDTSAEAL

| SMILES | inhibition of internalization (CB1) [1] | CB2/CB1 [1] | IC50 ([1]; read-out: CB1 (IC50 ±SD)) | inhibition of internalization (CB2) [2] | also measured |
| --- | --- | --- | --- | --- | --- |
| Cc1c(C(=O)NN2CCS(=O)(=O)CC2)nn(-c2ccc(Cl)cc2Cl)c1-c1ccc(C#CCCC#N)cc1 [AM6545] | 43.7% | 309 | 4.2 ± 0.24 nM | 50.7% |  |
| Cc1c(C(=O)NN2CCCCC2)nn(-c2ccc(Cl)cc2Cl)c1-c1ccc(Cl)cc1 [Rimonabant] |  |  |  | 37.7% |  |
| CCCCCn1cc(C(=O)C23CC4CC(CC(C4)C2)C3)c2ccccc21 [AB001, 3-[(adamantan-1-yl)carbonyl]-1-pentylindole] | 32.6% | 58 |  | 30.3% | IC50 [1]: 29.5 ± 2.23 nM |
| Cc1c(C(=O)NN2CCOCC2)nn(-c2ccc(Cl)cc2Cl)c1-c1ccc(I)cc1 [AM281] |  |  | 9.91 ± 0.99 nM | 44.2% |  |
| C[C@@]12CC[C@@H]3[C@@](CC[C@H]4[C@@]3(C)CCC[C@@]4(C)C(=O)O)(CC1=O)C2 [Isosteviol] |  | 0.02 |  | 56.8% | IC50 [1]: 37.5 ± 6.9 nM; inhibition of internalization (CB1) ([1]; 10 nM [3H]-Win 55,212-2, CHO-CB1): 71.1%; IC50 [2]: 0.9 nM and 0.89 nM; selectivity for CB2 (over CB1) ([2]; plate-based assay): ~ 40 times |
| CC(C)[C@H](N=C(NS(=O)(=O)c1ccc(Cl)cc1)N1C[C@H](c2ccccc2)C(c2ccc(Cl)cc2)=N1)C(N)=O [JD5037-030] | 64.4% | 810 | 0.2 ± 0.05 nM | 52.1% | binding affinity for CB2 (CB2 receptor): 245 nM |
| CCCCCn1cc(C(=O)C2C(C)(C)C2(C)C)c2ccccc21 [UR144] | 29.6% | 3 | 27.2 ± 6.6 nM | 38.1% | selectivity for CB1 (over CB2) ([1]; plate-based assay): did not observe any selectivity |
| Cc1c(C(=O)NN2CCCCC2)nn(-c2ccc(Cl)cc2Cl)c1-c1ccc(I)cc1 [AM251] |  |  |  | 60.5% |  |
| COc1ccc(C(=O)c2c(C)n(CCN3CCOCC3)c3cc(I)ccc23)cc1 [AM630] |  |  |  | 51.4% |  |
